Source: EP1566447A1, “Glimepiride- and insulin-induced glycosylphosphatidylinositol-specific phospholipase C regulation” (priority 2004, dated 2005)
“Also recorded” adds a separate entry of the source.

Tests used:
bovine AChE = target: T1, bovine AChE (Bos taurus, UniProt P23795); assay: selectivity: AChE activity; assay type: biochemical; conditions: 50 µM
T1 construct: solubilized and partially purified bovine erythrocyte AChE; from tissue; host or cells: bovine erythrocytes
Description: Electroporation was performed as described in "Müller, G. et al., (2000) Mol. Cell. Biol. 20: 4708-4723". Lipolysis was determined as release of glycerol or fluorescent NBD-FA from prelabeled and isoproterenol-stimulated adipocytes as described in "Müller, G. et al., (2003) Biochimie 85: 1245-1256". Gce1 was detected by photolabeling of solubilized plasma membranes or hc/IcDIGs (10-50 µg protein) with 8-N3-[^32P]cAMP and subsequent phosphorimaging as described in "Müller, G. et al., (1994) Biochemistry 33: 12149-12159". 5'-Nuc, aP and AChE activities were measured according to "Eliakim, R. et al., (1990) Biochim. Biophys. Acta 1355: 293-302". Protein was determined using the BCA protein determination kit from Pierce (Rockford, IL) and BSA as calibration standard. SDS-PAGE was performed using precast gels (Novex, San Diego, CA; 10 % Bis-Tris resolving gel, morpholinopropanesulfonic acid-SDS running buffer). Lumiimages were evaluated on a Lumilmager using Lumilmager software (Roche Diagnostics). Phosphor- and fluorescence images were processed and quantified using the Storm 860 Phosphorlmager system (Molecular Dynamics, Gelsenkirchen, Germany). Figures were constructed using the Adobe Photoshop software (Adobe Systems, Mountain View, CA).
Fig. 3: Selectivity of GPI-2350. […]

[1] = stability of the compound in solvents and as a solid; assay type: physicochemical
Description: As starting material, racemic 1,4,5,6-tetra-O-benzyl-myo-inositol (thereinafter: compound 1) was prepared by a procedure as disclosed in "Zhai, H.-X. et al. (1995) Tetrahedron Lett. 36: 7403-7406". Compound 1 was then phosphorylated with dodecylphosphonic dichloride in the presence of triethylamine and dimethyl-aminopyridine to yield tetra-O-benzyl-myo-inositol-1,2-cyclo-dodecylphosphonic acid (thereinafter: compound 2). By catalytic hydrogenation with 10% Pd on charcoal compound 2 was debenzylated to myo-inositol-1,2-cyclo-dodecylphosphonic acid (thereinafter: compound 3 or GPI-2350) as a mixture of diastereomeres. For synthesis of compound 2 (Fig. 1), 1 g (1.8 mmol) of compound 1 was dissolved in 60 ml of methylene chloride and 1 ml of triethylamine, 200 mg dimethyl-aminopyridine and 1 g ([…]) of dodecylphosphonic dichloride were added. This reaction solution was allowed to stand (45 min, room temperature). Then 50 ml of ethyl acetate were added and the mixture was filtrated on silical gel. After concentration of the solvent, the residue was purified by flash chromatography (n-heptane/ethyl acetate, 1/1, by vol.). Yield of compound 2: 580 mg (43 %) of a white amorphous solid. TLC: n-heptane/ethyl acetate (1/1, by vol.), Rf = 0.7. MS: (M + Li)^+ = 761.4, calculated […], M = 754.9. […] MS: (M + Li)^+ = 401.2, calculated C18H35O7P, M = 394.4.

rat adipocytes = assay: glucose transport assay; assay type: cell-based
Description: Glucose transport was determined as described in "Müller, G. et al., (1994) J. Cell Biol. 126: 1267-1276" by incubation of 10,000-20,000 washed adipocytes with 2-deoxy-D-[2,6-^3H]glucose at 50 µM final conc. (0.33 µCi/ml) in 50-µl portions for 20 min at 37°C in the absence or presence of 20 µM cytochalasin B.
Table 3: Isolated rat adipocytes were incubated in the presence of methyl-β-cyclodextrin (m-β-CD, 10 mM, 50 min), CBDP (300 µM, electroporation, followed by washing and subsequent incubation for 30 min), PIG41 (10 µM, 15 min), sodium orthovanadate (1 mM, 15 min), trypsin (10 µg/ml, 15 min followed by treatment with 0.5 M NaCl and subsequent washing) and N-ethylmaleimide (1 mM, 5 min followed by addition of DTT). After addition of GPI-2350 (50 µM final conc.) to one half of the adipocyte suspension and further incubation (60 min, 37°C), portions of the cells were assayed for 5'-Nuc activity in the isolated IcDIGs. The increase in 5'-Nuc during the basal incubation was set at 100 arb. units. Other portions of the cells (after 15 min incubation) were assayed for glucose transport which was set at 100 arb. units for the basal incubation. Means ± SD of at least 3 independent cell incubations with activity measurements in triplicate each are given.
Fig. 8: Effect of GPI-2350 on the glimepiride/insulin-induced metabolic activity. Isolated rat adipocytes were treated (5 min, 37°C) without or with GPI-2350 (Panel A, 50 µM; Panel B, increasing conc.; Panel C, 5 µM, 50 µM) and then incubated (15 min, 37°C) in the absence or presence of insulin (Ins, 10 nM) or glimepiride (Gli, 20 µM or increasing conc.) as indicated. The adipocytes were then assayed for glucose transport and isoproterenol-induced lipolysis. The activity is given relative to the absence of GPI-2350 in the control reaction (Panels A, basal) or in the insulin- and glimepiride-stimulated state (Panels B and C, set at 100). Means ± SD of at least 5 independent cell incubations with activity measurements in triplicate each are given.

[2] = target: phospholipase A2 (honey bee venom) (Apis mellifera, UniProt P00630); assay type: biochemical; conditions: 50 µM
Chain of phospholipase A2 (honey bee venom) (P00630 34-167 limits assumed): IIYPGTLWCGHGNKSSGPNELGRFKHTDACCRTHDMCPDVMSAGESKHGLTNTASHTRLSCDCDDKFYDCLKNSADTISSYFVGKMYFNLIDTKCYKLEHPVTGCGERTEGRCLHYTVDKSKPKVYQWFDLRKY

T1 sequence (P23795 other isoform, or with tags, fused parts or gaps): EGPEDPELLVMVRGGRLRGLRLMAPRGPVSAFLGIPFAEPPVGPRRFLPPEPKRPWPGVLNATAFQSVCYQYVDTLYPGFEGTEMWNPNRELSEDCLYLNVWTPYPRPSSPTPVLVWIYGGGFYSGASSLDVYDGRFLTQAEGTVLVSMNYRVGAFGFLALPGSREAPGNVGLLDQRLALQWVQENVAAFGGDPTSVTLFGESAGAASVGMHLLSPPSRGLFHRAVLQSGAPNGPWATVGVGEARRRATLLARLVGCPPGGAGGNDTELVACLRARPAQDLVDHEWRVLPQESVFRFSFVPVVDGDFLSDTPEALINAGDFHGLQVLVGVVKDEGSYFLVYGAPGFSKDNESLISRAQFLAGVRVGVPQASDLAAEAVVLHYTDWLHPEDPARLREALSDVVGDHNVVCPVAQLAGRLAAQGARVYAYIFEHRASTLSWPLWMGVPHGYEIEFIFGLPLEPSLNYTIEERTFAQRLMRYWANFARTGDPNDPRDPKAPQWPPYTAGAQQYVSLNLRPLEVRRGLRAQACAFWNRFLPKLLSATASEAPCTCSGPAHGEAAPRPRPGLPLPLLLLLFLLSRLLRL

CCCCCCCCCCCCP1(=O)O[C@@H]2[C@H](O)[C@@H](O)[C@H](O)[C@@H](O)[C@@H]2O1 (mixture of isomers) [GPI-2350, myo-inositol-1,2-cyclo-dodecylphosphonic acid]
effect on AChE activity (bovine AChE): not significantly affected
stability in acidic vs. basic solvents [1]: less stable in acidic than basic solvents
stability in methanol ([1]; methanol): for days
effect on stimulation of glucose transport in response to glimepiride (rat adipocytes; 50 µM): almost complete blockade; also recorded: lower than control values
IC50 (rat adipocytes; Rattus norvegicus, Adipocyte): 2 to 5 µM
inhibition at 50 µM (rat adipocytes; Rattus norvegicus, Adipocyte, 50 µM, insulin 10 nM, read-out: reduction of insulin stimulation of glucose transport): ≤ 25%
effect on phospholipase activity [2]: not significantly affected
